Experimental data: US5208344A, “Naphthalenepropionic acid derivatives as anti-inflammatory/antiallergic agents” (American Home Products Corporation, priority 1991, dated 1993)

Legend:
[1] = molecular target: T1, 5-lipoxygenase (Rattus norvegicus, UniProt P12527); test: inhibition of 5-HETE synthesis by rat glycogen elicited polymorphonuclear leukocytes; assay type: cell-based; conditions: 10 μM; rat PMN; negative = potentiation of 5-HETE synthesis; read-out: % Inhibition of 5-LO (as 5-HETE)
T1 construct: Peritoneal PMN are obtained from female Wistar rats (150-250 g); endogenous in cells; host or cells: rat glycogen-elicited peritoneal polymorphonuclear leukocytes, intact
T1 sequence (P12527 1-673): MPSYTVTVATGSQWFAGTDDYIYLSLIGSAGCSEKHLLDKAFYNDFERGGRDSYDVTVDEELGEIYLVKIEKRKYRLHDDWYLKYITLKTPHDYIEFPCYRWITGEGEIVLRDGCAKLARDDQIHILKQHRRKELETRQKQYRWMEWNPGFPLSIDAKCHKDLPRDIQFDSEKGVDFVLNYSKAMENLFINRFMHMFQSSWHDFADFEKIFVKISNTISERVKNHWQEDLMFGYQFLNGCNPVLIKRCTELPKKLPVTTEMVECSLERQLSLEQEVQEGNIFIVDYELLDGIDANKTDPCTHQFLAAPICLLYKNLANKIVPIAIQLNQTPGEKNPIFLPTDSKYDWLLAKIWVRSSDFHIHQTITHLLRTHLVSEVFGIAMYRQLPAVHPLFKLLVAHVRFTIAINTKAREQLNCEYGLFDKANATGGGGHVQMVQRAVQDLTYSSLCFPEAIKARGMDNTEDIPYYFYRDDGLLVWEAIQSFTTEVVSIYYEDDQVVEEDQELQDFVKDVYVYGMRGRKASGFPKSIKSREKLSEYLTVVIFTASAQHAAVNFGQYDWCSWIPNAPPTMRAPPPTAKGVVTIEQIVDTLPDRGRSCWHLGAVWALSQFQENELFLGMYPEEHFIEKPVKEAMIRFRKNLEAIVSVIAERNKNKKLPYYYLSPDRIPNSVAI
Outline: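 Peritoneal PMN from female Wistar rats given i.p. glycogen 24 h earlier were preincubated with compound for 10 min at 37° C (2×10^7 cells/ml, 10 mM L-cysteine). They were then stimulated 10 min with 10 μM A23187 plus 0.5 μM [14C]arachidonic acid. 5-HETE was separated by TLC and quantified by scintillation.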

[2] = test system: carrageenan paw edema; test: rat carrageenan paw edema assay; assay type: in vivo; conditions: 1 hour prior to carrageenan, rat
Experimental: The compounds of the invention are further tested in the rat carrageenan paw edema assay to determine their ability to inhibit the acute inflammatory response.
140-180 gm male Sprague-Dawley rats, in groups of 6 animals are injected subcutaneously in the right paw with 0.1 ml of 1% carrageenan at zero time. Mercury plethysmographic readings (ml) of the paw are made at zero time and 3 hours later. Test compounds are suspended or dissolved in 0.5% methylcellulose and given perorally 1 hour prior to carrageenan administration.
The increase in paw volume (edema in ml.) produced by the carrageenan is measured. […] Unpaired Student's t-test is used to determine statistical significance.

[3] = molecular target: T2, LTD4 (Cavia porcellus, UniProt Q2NNR5); test: inhibition of LTD4-induced bronchospasm in guinea pigs; assay type: in vivo; conditions: 25 mg/kg intraduodenally, 10 minutes before LTD4; guinea pig
T2 construct: isolated guinea pig trachea; from tissue; host or cells: guinea pig tracheal rings
T2 sequence (Q2NNR5 1-340): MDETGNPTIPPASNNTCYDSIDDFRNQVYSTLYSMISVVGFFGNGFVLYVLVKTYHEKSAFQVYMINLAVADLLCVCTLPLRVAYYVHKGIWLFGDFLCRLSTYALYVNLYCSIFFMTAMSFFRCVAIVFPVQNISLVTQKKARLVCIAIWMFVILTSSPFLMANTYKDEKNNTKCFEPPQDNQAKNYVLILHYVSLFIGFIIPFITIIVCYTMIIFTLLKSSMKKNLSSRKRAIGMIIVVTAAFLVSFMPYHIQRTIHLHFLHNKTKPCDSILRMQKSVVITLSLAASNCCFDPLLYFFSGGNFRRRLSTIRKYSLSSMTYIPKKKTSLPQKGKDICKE
Experimental: The assay of this Example measures the in vivo ability of the compounds of the invention to inhibit the bronchospasm induced in guinea pigs by the exogenously administered leukotrienes C4 and/or D4.
Male Hartley strain guinea pigs (350-600 g) are anesthetized with pentobarbital sodium (50 mg/kg, i.p.). The jugular vein is cannulated for injection of drugs and the carotid artery for monitoring blood pressure. The trachea is cannulated for artificial ventilation by a miniature Starling pump and for indirect measurement of respiratory volume changes. The animals are then pretreated with succinylcholine (2 mg/kg i.v.) and indomethacin (10 mg/kg i.v.) in trizma 8.3 buffer, 9 minutes prior to leukotriene challenge. Submaximal bronchoconstrictor responses are established in control animals by varying the dose-levels of leukotriene. Intravenous dose-levels for LTC4 range from 0.4 to 0.6 μg/kg and for LTD4 the range is from 0.3 to 0.5 μg/kg. The aerosol bronchoprovocation dose for LTC4 is generated from 1.6 μM solution and for LTD4 from a 2.0 μM solution.
Test drugs (dissolved in a solvent such as propylene glycol, polyethylene glycol 400 or saline) are administered either intraduodenally, by aerosol or intragastrically at 2 or 10 minutes before induction of bronchospasm by administration of either LTC4 or LTD4 at the predetermined dose-levels. Aerosols of soluble drugs or leukotrienes are produced in-line for 10 seconds only by actuation of an ultrasonic nebulizer (Monaghan). Aerosolized drug dosage is expressed in terms of solution concentration and by a fixed aerosol exposure time (approximately 10 seconds). Control animals receive solvent (2 ml/kg i.d. or appropriate aerosol) in place of drug.
Respiratory volume changes are determined by a calibrated piston whose travel is recorded, via a linear transducer, on a Beckman Dynograph recorder. Maximal bronchoconstrictor volume is determined by clamping off the trachea at the end of the experiment. Overflow volumes at 1,3 and 5 minutes are obtained from the recorded charts.
Area under the volume overflow curve (AUC) is estimated, using the overflow values at 1,3 and 5 minutes, and expressed as a percentage of the maximal overflow AUC (equation 1): [formula] Drug effects are reported as percent inhibition of % max AUC values obtained from appropriate control animals (equation 2): [formula]
Student's t-test for unpaired data is used to determine statistical signifiance (p<0.05). IC50 values can also be determined by inverse prediction from linear regression liens through points between 10 and 90% inhibition.

[4] = test system: cyclooxygenase; test: inhibition of synthesis of cyclooxygenase products TxB2 and PGE2 (rat polymorphonuclear leukocytes); assay type: cell-based; conditions: 10 μM, rat PMN; for % Inhibition of CO (as PGE2): negative = potentiation of PGE2 synthesis
Outline: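 Glycogen-elicited peritoneal PMN from female Wistar rats, 2×10^7 cells/ml in HBSS with Ca^++, Mg^++ and 10 mM L-cysteine, preincubated with compound 10 min at 37° C. Stimulated 10 min with A23187 (10 μM) plus 0.5 μM [14C] arachidonic acid; TxB2 and PGE2 quantified by TLC, autoradiography and scintillation counting.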

[5] = test system: acute gastroirritation induced by naproxen; test: cytoprotective activity against NSAID (naproxen)-induced acute gastroirritation in rats; assay type: in vivo, rat; conditions: drug 100 mg/kg peroral 1 hour before naproxen 25 mg/kg
Text: The assay of Example 44 is also used to measure the cytoprotective activity of the compounds against acute gastroirritation induced by a nonsteroidal anti-inflammatory drug (NSAID).

[6] = test system: pleural inflammation; test: reverse passive Arthus pleurisy assay, pleural inflammation; assay type: in vivo; conditions: rat
Experimental: (§1) The compounds of the invention are further tested in the reverse passive Arthus pleurisy assay to evaluate their effectiveness in inflammatory mediator release and/or the fluid and cellular phases of an inflammatory response.
(§2) A reverse passive Arthus reaction is induced in the pleural cavity of male Lewis rats (150-200 g; fasted overnight prior to use) by the intravenous administration of bovine serum albumin (BSA; 4 mg/0.2 ml) followed 30 minutes later by the injection of rabbit anti-BSA (1 mg/0.2 ml; lyophilized IgG fraction; Organon Teknika, West Chester, PA) into the right pleural space under halothane anesthesia. Drugs or vehicle (0.5% Tween-80) control are administered orally in a volume of 1 ml/100 g body weight at 1 hour prior to the anti-BSA. Animals are sacrificed at either the time of peak eicosanoid production (i.e. 5 minutes after anti-BSA for immunoreactive TxB2, 10 minutes for immunoreactive LTB4, 20 minutes for immunoreactive LTC4) or at the time of peak neutrophil infiltration (4 hours after anti-BSA) by CO2 inhalation. The pleural cavity is then exposed, the fluid exudate removed by gentle vacuum aspiration and the volume of exudate is recorded. For the determination of cellular infiltration, the pleural cavity is rinsed with 3 ml of 0.1% EDTA in sterile saline, and the recovered wash is pooled with the exudate. Cell number is determined on a model ZBI Coulter counter. For determination of eicosanoid production, undiluted pleural exudate is microfuged and the supernatant is extracted with ethanol (8-10 times volume). Extracts are either stored at -20° C., or are evaporated to dryness under a stream of N2 and reconstituted in radioimmunoassay (RIA) buffer.
(§3) Inflammatory cells are expressed as 10^6 cells/ml, pleural exudate is expressed as ml of fluid, and the amount of eicosanoids in the pleural cavity is expressed as ng/ml of exudate. Mean±S.E.M. is determined for each group. Percent inhibition (% I) of cell number, exudate volume and eicosanoid production is calculated for vehicle-treated control groups, and the responses in drug-treated rats are then expressed as the mean $ I of control.

[7] = test system: inflammatory mediator release; test: reverse passive Arthus pleurisy assay, inflammatory mediator release; assay type: in vivo, rat; conditions: rat
Experimental: as §1
as §2, with “Drugs or vehicle (0.5% Tween-80) control are administered orally in a volume of 1 ml/100 g body weight at 1 hour prior to the anti-BSA.” left out
Eicosanoids are quantitated by RIA according to the procedure specified by the RIA kit manufacturer (Advanced Magnetics, Cambridge, MA). Briefly, 100 μl of ^3 H-labeled eicosanoid and 100 μl of specific antibody are sequentially added to 100 μl of extracted pleural exudate in BGG-phosphate buffer which contains 0.01 M phosphate, 0.1% bovine gamma globulin and 0.1% sodium azide at pH 7.0. Antibody-bound eicosanoid is separated form unbound eicosanoid by the addition of 750 μl of dextran (0.4%)-coated charcoal (0.4% Norit A) containing 0.1% sodium azide. The mixture is centrifuged at 2000 RPM at 5° C. for 15 minutes to pellet the charcoal and adsorbed unbound eicosanoid. Antibody-bound labeled eicosanoid is quantitated by counting in a liquid scintillation counter, and is correlated to concentration by a standard curve.
as §3

| Structure (SMILES) | inhibition at 10 µM [1] [%] | % Inhibition at 50 mg/kg (peroral) [2] [%] | % Inhibition (LTD4-induced bronchospasm) [3] [%] | % Inhibition of CO (as TxB2) [4] [%] | % Inhibition of CO (as PGE2) [4] [%] | % of Rats With Lesions [5] [%] | Comments (protection) [5] | Oral ED50 (95% C.L.) ([2]; oral, 95% C.L. in parentheses, 180 min) | % Inh Cellular Influx ([6]; 8 mg/kg p.o.) [%] | ED30 Fluid Exudation ([6]; p.o.) [mg/kg] | % Inh LTB4 ([7]; 4 mg/kg p.o.) [%] | ED50 TxB2 ([7]; p.o., 1 hour prior to anti-BSA, 5 min) [mg/kg] |
| --- | --- | --- | --- | --- | --- | --- | --- | --- | --- | --- | --- | --- |
| CC(C(=O)O)c1ccc2cc(OCc3ccc4ccccc4n3)ccc2c1 (stereo not drawn) [Example 1, α-Methyl-6-(2-quinolinylmethoxy)-2-naphthaleneacetic acid] | 100 | 42 | 75 | 28 | -37 |  |  |  |  |  |  |  |
| CC(C(=O)O)c1ccc2cc(OCc3ccccc3)ccc2c1 (stereo not drawn) [Example 2, α-Methyl-6-(phenylmethoxy)-2-naphthaleneacetic acid] | 84 | 24 | -76 | 6 | -26 |  |  |  |  |  |  |  |
| CC(C(=O)O)c1ccc2cc(OCc3nc4ccccc4n3C)ccc2c1 (stereo not drawn) [Example 3, α-Methyl-6-[(1-methyl-1H-benzimidazol-2-yl)-methoxy]-2-naphthaleneacetic acid] | 24 | 32 | 80 | 15 | -29 |  |  |  |  |  |  |  |
| CC(C(=O)O)c1ccc2cc(OCc3ccccn3)ccc2c1 (stereo not drawn) [Example 4, α-Methyl-6-(2-pyridinylmethoxy)-2-naphthaleneacetic acid] | 82 | 30 | 52 | 12 | 18 |  |  |  |  |  |  |  |
| CCCCCCOc1ccc2cc(C(C)C(=O)O)ccc2c1 (stereo not drawn) [Example 10, α-Methyl-6-(hexyloxy)-2-naphthaleneacetic acid] | 81 |  |  |  | -5 | 37.5 | protection |  |  |  |  |  |
| CCCCOc1ccc2cc(C(C)C(=O)O)ccc2c1 (stereo not drawn) [Example 11, α-Methyl-6-(butyloxy)-2-naphthaleneacetic acid] | 28 |  |  |  | -3 | 50.0 | moderate protection |  |  |  |  |  |
| COc1ccc2c(c1)c(CC(=O)O)c(C)n2C(=O)c1ccc(Cl)cc1 [Indomethacin] |  |  |  |  |  |  |  | 3.7 (0.6, 23.8) mg/kg | 19 | 2.5 | 12 | 0.16 |
